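Grown in 96-well plates, cells were treated for 48 hours with each compound at five concentrations. Insufficient inhibition: endpoint recorded as highest concentration tested. Abbreviation: GI50, concentration required for 50% inhibition of growth.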 Calls of active or inactive are those of the source. Cut-off read from the data, not from the text of the source: active = GI50 up to about 1.1 µM and inactive = higher.
Tests used:
Experiment in all cases: growth of human tumour cells (NCI), 48 h
RXF 393 = system: RXF 393
KM12 = system: KM12
MOLT-4 = system: MOLT-4
MCF7 = system: MCF7
NCI/ADR-RES = system: NCI/ADR-RES
MDA-MB-231 = system: MDA-MB-231
MDA-N = system: MDA-N
ACHN = system: ACHN
SF-295 = system: SF-295
CAKI-1 = system: CAKI-1
IGROV-1 = system: IGROV-1
U-251 = system: U-251
NCI-H522 = system: NCI-H522
DU-145 = system: DU-145
A498 = system: A498
EKVX = system: EKVX
NCI-H226 = system: NCI-H226
786-0 = system: 786-0
OVCAR-8 = system: OVCAR-8
HCC 2998 = system: HCC 2998

Measured: GI50

Cc1nc2sc3ccccc3n2c(=O)c1/N=N/c1ccc(Br)cc1
inactive: RXF 393 > 100 µM | KM12 > 100 µM | MOLT-4 55.8 µM | MCF7 81.3 µM | NCI/ADR-RES > 100 µM | MDA-MB-231 60.1 µM | MDA-N > 100 µM | ACHN > 100 µM | SF-295 > 100 µM | CAKI-1 > 100 µM | IGROV-1 > 100 µM | U-251 > 100 µM | NCI-H522 38.5 µM | DU-145 > 100 µM | A498 43.3 µM | EKVX 57.1 µM | NCI-H226 44.8 µM | 786-0 > 100 µM | OVCAR-8 > 100 µM

COC[C@@H](/N=C/c1ccc([N+](=O)[O-])cc1)C(C)C
inactive: RXF 393 > 100 µM | KM12 > 100 µM | MOLT-4 42.2 µM | MCF7 95.1 µM | NCI/ADR-RES > 100 µM | MDA-MB-231 3.24 µM | MDA-N 29.4 µM | ACHN > 100 µM | SF-295 > 100 µM | CAKI-1 > 100 µM | IGROV-1 > 100 µM | U-251 > 100 µM | NCI-H522 > 100 µM | DU-145 > 100 µM | EKVX > 100 µM | 786-0 > 100 µM | OVCAR-8 > 100 µM

FC1(F)SC2CCCCCCCCCCC2C1(F)F (stereo not drawn)
inactive: RXF 393 20.7 µM | MOLT-4 28.2 µM | MCF7 20.2 µM | NCI/ADR-RES 63.4 µM | MDA-MB-231 22.8 µM | MDA-N 37.6 µM | ACHN 25.3 µM | SF-295 28.6 µM | CAKI-1 59.6 µM | IGROV-1 76 µM | U-251 28.5 µM | NCI-H522 21.8 µM | DU-145 31.1 µM | EKVX 35.5 µM | NCI-H226 33.3 µM | 786-0 56.4 µM | OVCAR-8 40.9 µM

Cc1nc(NC(C)(CO)CO)nc(N/N=C/c2ccc(Cl)cc2)c1C(=O)Nc1ccc(Cl)cc1
inactive: RXF 393 28.4 µM | KM12 86.7 µM | MOLT-4 65.5 µM | MCF7 51.1 µM | NCI/ADR-RES > 100 µM | HCC 2998 > 100 µM | MDA-MB-231 > 100 µM | MDA-N > 100 µM | ACHN 47.9 µM | SF-295 > 100 µM | CAKI-1 > 100 µM | IGROV-1 > 100 µM | U-251 74.8 µM | NCI-H522 48.1 µM | DU-145 > 100 µM | EKVX > 100 µM | NCI-H226 > 100 µM | 786-0 > 100 µM | OVCAR-8 > 100 µM

CC(C)c1c(O[Si](C(C)C)(C(C)C)C(C)C)cc2c(c1O)CC[C@H]1C(C)(C)CCC[C@]21C
inactive: RXF 393 > 100 µM | KM12 > 100 µM | MOLT-4 43.9 µM | MCF7 > 100 µM | NCI/ADR-RES > 100 µM | MDA-MB-231 > 100 µM | MDA-N > 100 µM | ACHN > 100 µM | SF-295 > 100 µM | CAKI-1 > 100 µM | IGROV-1 > 100 µM | U-251 > 100 µM | NCI-H522 47.2 µM | DU-145 > 100 µM | A498 > 100 µM | EKVX > 100 µM | NCI-H226 > 100 µM | 786-0 > 100 µM | OVCAR-8 > 100 µM

CC(C)CC(NP(=O)(O)OC1OC(C)C(O)C(O)C1O)C(=O)NC(Cc1c[nH]c2ccccc12)C(=O)O (stereo not drawn)
inactive: KM12 > 100 µM | MOLT-4 > 100 µM | MCF7 > 100 µM | NCI/ADR-RES > 100 µM | HCC 2998 > 100 µM | MDA-MB-231 > 100 µM | MDA-N > 100 µM | SF-295 > 100 µM | CAKI-1 > 100 µM | IGROV-1 > 100 µM | U-251 > 100 µM | NCI-H522 > 100 µM | DU-145 > 100 µM | A498 > 100 µM | EKVX > 100 µM | NCI-H226 > 100 µM | 786-0 > 100 µM | OVCAR-8 > 100 µM

COc1ccc(-c2oc3c(OC)c(OC)c(OC)c(OC)c3c(=O)c2OC)cc1OC [3,5,6,7,8,3',4'-HEPTAMETHOXYFLAVONE]
inactive: KM12 47.5 µM | MOLT-4 22.4 µM | MCF7 21.3 µM | NCI/ADR-RES 20.3 µM | HCC 2998 63.8 µM | MDA-MB-231 59.7 µM | MDA-N 27.6 µM | ACHN 33.5 µM | SF-295 32 µM | CAKI-1 53.8 µM | IGROV-1 30.3 µM | U-251 51.5 µM | NCI-H522 19.4 µM | DU-145 55.1 µM | A498 31 µM | EKVX 55.7 µM | NCI-H226 48.9 µM | 786-0 24.5 µM | OVCAR-8 23.6 µM
